Assays:
Format in all cases: in vivo
[1] = tested on: POLCO: Polygonum convolvulus; experiment: Post-emergence herbicidal action; conditions: Table C2, post-emergence, dosage 320 (0.32 kg of active substance per hectare), rated visually after about 3 weeks
Method in brief: (§1)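 Scores reflect visual injury about three weeks post-spray, where 0% equals untreated control growth and 100% equals dead plants. Treatment was a single foliar application at the one-leaf stage in sandy loam under greenhouse conditions.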

[2] = tested on: ECHCG: Echinochloa crus-galli; experiment: Post-emergence herbicidal action; conditions: Table C2, post-emergence, dosage 320 (0.32 kg of active substance per hectare), rated visually after about 3 weeks
Method in brief: as §1

VERPE: Veronica persica [3] = experiment: Post-emergence herbicidal action; conditions: Table C2, post-emergence, dosage 320 (0.32 kg of active substance per hectare), rated visually after about 3 weeks
Method in brief: as §1

[4] = tested on: ABUTH: Abutilon theophrasti; experiment: Post-emergence herbicidal action; conditions: Second Table C3, superiority with respect to WO 2012/130798, post-emergence, 80 g/ha
Method in brief: as §1

AVEFA: Avena fatua [5] = experiment: Post-emergence herbicidal action; conditions: Table C2, post-emergence, dosage 320 (0.32 kg of active substance per hectare), rated visually after about 3 weeks
Method in brief: as §1

STEME: Stellaria media [6] = experiment: Post-emergence herbicidal action
Method in brief: as §1

[7] = tested on: AMARE: Amaranthus retroflexus; experiment: Post-emergence herbicidal action; conditions: Table C2, post-emergence, dosage 320 (0.32 kg of active substance per hectare), rated visually after about 3 weeks
Method in brief: as §1

[8] = tested on: ALOMY: Alopecurus myosuroides; experiment: Post-emergence herbicidal action; conditions: Table C2, post-emergence, dosage 320 (0.32 kg of active substance per hectare), rated visually after about 3 weeks
Method in brief: as §1

HORMU: Hordeum murinum [9] = experiment: Post-emergence herbicidal action; conditions: Table C2, post-emergence, dosage 320 (0.32 kg of active substance per hectare), rated visually after about 3 weeks
Method in brief: as §1

LOLRI: Lolium rigidum [10] = experiment: Post-emergence herbicidal action; conditions: Table C2, post-emergence, dosage 320 (0.32 kg of active substance per hectare), rated visually after about 3 weeks
Method in brief: as §1

[11] = tested on: POLCO: Polygonum convolvulus; experiment: Pre-emergence herbicidal action; conditions: Table C1, pre-emergence, 80 g/ha, scored visually after about 3 weeks
Excerpt: (§2) Seeds of monocotyledonous and dicotyledonous weed plants and crop plants are placed in plastic or wood fiber pots and covered with soil. The compounds of the invention, formulated in the form of wettable powders (WP) or as emulsion concentrates (EC), are then applied onto the surface of the covering soil as aqueous suspension or emulsion with addition of 0.5% additive at a water application rate of […] (converted). After the treatment, the pots are placed in a greenhouse and kept under good growth conditions for the trial plants. After about 3 weeks, the effect of the preparations is scored visually in comparison with untreated controls as percentages. For example, 100% activity=the plants have died, 0% activity=like control plants. [table]

PHBPU: Ipomoea purpurea = experiment: Pre-emergence herbicidal action; conditions: Table C1, pre-emergence, 80 g/ha, scored visually after about 3 weeks
Excerpt: as §2

[12] = tested on: ECHCG: Echinochloa crus-galli; experiment: Pre-emergence herbicidal action; conditions: Table C1, pre-emergence, 80 g/ha, scored visually after about 3 weeks
Excerpt: as §2

VERPE: Veronica persica [13] = experiment: Pre-emergence herbicidal action
Excerpt: as §2

[14] = tested on: ABUTH: Abutilon theophrasti; experiment: Pre-emergence herbicidal action; conditions: Table C1, pre-emergence, 80 g/ha, scored visually after about 3 weeks
Excerpt: as §2

AVEFA: Avena fatua [15] = experiment: Pre-emergence herbicidal action
Excerpt: as §2

STEME: Stellaria media [16] = experiment: Pre-emergence herbicidal action
Excerpt: as §2

[17] = tested on: AMARE: Amaranthus retroflexus; experiment: Pre-emergence herbicidal action
Excerpt: as §2

[18] = tested on: ALOMY: Alopecurus myosuroides; experiment: Pre-emergence herbicidal action
Excerpt: as §2

SETVI: Setaria viridis = experiment: Pre-emergence herbicidal action
Excerpt: as §2

HORMU: Hordeum murinum [19] = experiment: Pre-emergence herbicidal action; conditions: Table C1, pre-emergence, 80 g/ha, scored visually after about 3 weeks
Excerpt: as §2

VIOTR: Viola tricolor = experiment: Pre-emergence herbicidal action
Excerpt: as §2

LOLRI: Lolium rigidum [20] = experiment: Pre-emergence herbicidal action; conditions: Table C1, pre-emergence, 80 g/ha, scored visually after about 3 weeks
Excerpt: as §2

[21] = tested on: MATIN: Matricaria inodora; experiment: Pre-emergence herbicidal action; conditions: Table C1, pre-emergence, 80 g/ha, scored visually after about 3 weeks
Excerpt: as §2

[22] = Second Table C4, superiority with respect to WO 2012/130798, pre-emergence, 20 g/ha
[23] = Table C1, pre-emergence, 80 g/ha, scored visually after about 3 weeks

CCOC(=O)C1CCC(NC(=O)C2(C(F)(F)F)CC(c3cc(F)cc(F)c3)=NO2)C1 (mixture of isomers) [Example I-29]
90%: Herbicidal action against [%] POLCO [1] | Herbicidal action against [%] AVEFA (AVEFA: Avena fatua [5]) | Herbicidal action against [%] ALOMY [8] | Herbicidal action against [%] HORMU (HORMU: Hordeum murinum [9]) | Herbicidal action against [%] LOLRI (LOLRI: Lolium rigidum [10]) | Herbicidal action against [%] ECHCG [12] | Herbicidal action against [%] VERPE (VERPE: Veronica persica [13]; [22]) | Herbicidal action against [%] STEME (STEME: Stellaria media [16]; [22]) | Herbicidal action against [%] STEME (STEME: Stellaria media [16]; [23]) | Herbicidal action against [%] ALOMY [18, 22] | Herbicidal action against [%] SETVI (SETVI: Setaria viridis; [22]) | Herbicidal action against [%] HORMU (HORMU: Hordeum murinum [19]) | Herbicidal action against [%] VIOTR (VIOTR: Viola tricolor; [22]) | Herbicidal action against [%] VIOTR (VIOTR: Viola tricolor; [23])
100%: Herbicidal action against [%] VERPE (VERPE: Veronica persica [13]; [23]) | Herbicidal action against [%] AMARE [17, 22] | Herbicidal action against [%] AMARE [17, 23] | Herbicidal action against [%] ALOMY [18, 23] | Herbicidal action against [%] SETVI (SETVI: Setaria viridis; [23]) | Herbicidal action against [%] LOLRI (LOLRI: Lolium rigidum [20])
70%: Herbicidal action against [%] ABUTH [14] | Herbicidal action against [%] AVEFA (AVEFA: Avena fatua [15]; [22])
80%: Herbicidal action against [%] ECHCG [2] | Herbicidal action against [%] VERPE (VERPE: Veronica persica [3]) | Herbicidal action against [%] ABUTH [4] | Herbicidal action against [%] STEME (STEME: Stellaria media [6]; Second Table C3, superiority with respect to WO 2012/130798, post-emergence, 80 g/ha) | Herbicidal action against [%] STEME (STEME: Stellaria media [6]; Table C2, post-emergence, dosage 320 (0.32 kg of active substance per hectare), rated visually after about 3 weeks) | Herbicidal action against [%] AMARE [7] | Herbicidal action against [%] POLCO [11] | Herbicidal action against [%] PHBPU (PHBPU: Ipomoea purpurea) | Herbicidal action against [%] AVEFA (AVEFA: Avena fatua [15]; [23])
30%: Herbicidal action against [%] MATIN [21]
